# Measured values from publication PMC3265452 (PLoS Neglected Tropical Diseases, 2012).
# Counter-ions that a name gives are not always drawn.
# Target: AaDOP2 (Aedes aegypti, UniProt H6D5H2)
# Assay: AaDOP2 antagonist screen of the LOPAC1280 library (HEK-CRELuc-Aadop2 cells, luminescence)
# Assay type: cell-based
# Details: not given
# AaDOP2, sequence (H6D5H2 1-476): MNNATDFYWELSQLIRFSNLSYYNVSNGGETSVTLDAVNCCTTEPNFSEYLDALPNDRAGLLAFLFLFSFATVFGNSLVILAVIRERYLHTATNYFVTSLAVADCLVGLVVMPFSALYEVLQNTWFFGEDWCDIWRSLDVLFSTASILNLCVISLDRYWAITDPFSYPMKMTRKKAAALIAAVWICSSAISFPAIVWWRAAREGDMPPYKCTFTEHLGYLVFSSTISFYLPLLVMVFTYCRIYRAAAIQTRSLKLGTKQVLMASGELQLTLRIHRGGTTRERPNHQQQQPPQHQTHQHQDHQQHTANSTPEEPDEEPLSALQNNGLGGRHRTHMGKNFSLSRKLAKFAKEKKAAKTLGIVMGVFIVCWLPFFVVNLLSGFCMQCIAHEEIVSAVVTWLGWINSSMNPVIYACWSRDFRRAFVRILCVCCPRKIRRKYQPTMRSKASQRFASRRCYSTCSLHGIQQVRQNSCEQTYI
row,Compound,"Compound effect (percent receptor signaling in presence of test compound, relative lux units relative to the SCH23390 control)"
1,"COc1cc(OC)cc(C(CNc2ncnc3c2ncn3[C@@H]2O[C@H](CO)[C@@H](O)[C@H]2O)c2ccccc2C)c1 (some centres unmarked) [Compound 455, DPMA]",110
2,"O=[N+]([O-])c1cc(O)c(O)c([N+](=O)[O-])c1 [Compound 456, 3,5-Dinitrocatechol]",95
3,"CCCN(CCC)CCc1c[nH]c2ccc(C(N)=O)cc12.O=C(O)/C=C\C(=O)O [Compound 457, N,N-Dipropyl-5-carboxamidotryptamine maleate]",106
4,"O=C1N=c2cc(Cl)c(Cl)cc2=NC1=O [Compound 458, 6,7-Dichloroquinoxaline-2,3-dione]",129
5,"C#CCn1c(=O)c2c(ncn2C)n(C)c1=O [Compound 459, 3,7-Dimethyl-I-propargylxanthine]",101
6,"Cl.O=C(OC1CCN(CCCl)CC1)C(c1ccccc1)c1ccccc1 [Compound 461, 4-Diphenylacetoxy-N-(2-chloroethyl)piperidine hydrochloride]",99
7,"NCCCCCCCCCCN [Compound 462, 1,10-Diaminodecane]",99
8,"Br.CO[C@H]1CC=C2CCN3CCC4=C(CC(=O)OC4)[C@]23C1 [Compound 463, Dihydro-beta-erythroidine hydrobromide]",103
9,"COc1cc(C[C@@H](C)N)c(OC)cc1I.Cl [Compound 464, ( R)-(-)-DOI hydrochloride]",69
10,"CC(C)[C@@]1(NC(=O)[C@@H]2C[C@@H]3c4cccc5[nH]cc(c45)C[C@H]3N(C)C2)O[C@@]2(O)[C@@H]3CCCN3C(=O)[C@H](Cc3ccccc3)N2C1=O.CS(=O)(=O)O [Compound 465, Dihydroergocristine methanesulfonate]",32
11,"Nc1cc(=O)[nH]c(N)n1 [Compound 466, 2,6-Diamino-4-pyrimidinone]",114
12,"CN1C2CCC1CC(OC(c1ccc(F)cc1)c1ccc(F)cc1)C2.Cl (stereo not drawn) [Compound 468, 4',4''-Difluor-3alpha-(diphenylmethoxy)tropane hydrochloride]",123
13,"CC(C)C[C@H](NC(=O)[C@H](O)[C@H](N)Cc1ccccc1)C(=O)O [Compound 471, Epibestatin hydrochloride]",107
14,"CCc1cccc2c3c([nH]c12)C(CC)(CC(=O)O)OCC3 (centres unmarked) [Compound 472, Etodolac]",98
15,"CSc1ccc(C(=O)c2[nH]c(=O)[nH]c2C)cc1 [Compound 473, Enoximone]",103
16,"COc1cc([C@@H]2c3cc4c(cc3[C@@H](O[C@@H]3O[C@@H]5CO[C@@H](C)O[C@H]5[C@H](O)[C@H]3O)[C@H]3COC(=O)[C@H]23)OCO4)cc(OC)c1O [Compound 474, Etoposide]",90
17,"CCOC(=O)c1cnc2c(cnn2CC)c1NN=C(C)C [Compound 476, Etazolate hydrochloride]",136
18,"CC[C@H]1CN2CCc3cc(OC)c(OC)cc3[C@@H]2C[C@@H]1C[C@H]1NCCc2cc(OC)c(OC)cc21 [Compound 478, Emetine dihydrochloride hydrate]",14

row,Compound,"Compound effect (percent receptor signaling in presence of test compound, relative lux units relative to the SCH23390 control)"
1,"CC(C)C[C@H](NC(=O)[C@H]1O[C@@H]1C(=O)O)C(=O)NCCCCN=C(N)N [Compound 480, E-64]",112
2,"CN[C@@H](C)[C@H](O)c1ccccc1.CN[C@@H](C)[C@H](O)c1ccccc1.O=S(=O)(O)O [Compound 483, (-)-Ephedrine hemisulfate]",60
3,"CC[N+](C)(C)c1cccc(O)c1 [Compound 484, Edrophonium chloride]",118
4,"CCC1(C2=NCCN2)Cc2ccccc2O1 (centres unmarked) [Compound 485, Efaroxan hydrochloride]",74
5,"Cc1c2ccncc2c(C)c2c1[nH]c1ccccc12 [Compound 486, Ellipticine]",98
6,"O=c1c2ccccc2[se]n1-c1ccccc1 [Compound 487, Ebselen]",102
7,"CCN1C(=O)C=CC1=O [Compound 490, N-Ethylmaleimide]",87
8,"O=C(O)CN(CCOCCOCCN(CC(=O)O)CC(=O)O)CC(=O)O [Compound 492, Ethylene glycol-bis(2-aminoethylether)-N,N,N',N'-tetraacetic acid]",121
9,"CCC1(C)CC(=O)NC1=O (centres unmarked) [Compound 494, Ethosuximide]",146
10,"O=C(O)[C@@H]1[C@H](C(=O)O)[C@H]2CC[C@@H]1O2 [Compound 495, Endothall]",117
11,"Cc1cc(O)c2c(c1)C(=O)c1cc(O)cc(O)c1C2=O [Compound 496, Emodin]",49
12,"CNC(=O)Oc1ccc2c(c1)[C@]1(C)CCN(C)[C@@H]1N2C [Compound 497, (-)-Physostigmine]",93
13,"CCCN(CC1CC1)c1nc(C)nc(Nc2c(Cl)cc(Cl)cc2Cl)c1Cl [Compound 498, NBI 27914]",90
14,"C[C@]12CC[C@@H]3c4ccc(O)cc4CC[C@H]3[C@@H]1CC[C@@H]2O [Compound 499, beta-Estradiol]",112
15,"C[C@]12CC[C@@H]3c4ccc(O)cc4CC[C@H]3[C@@H]1CCC2=O [Compound 500, Estrone]",91
16,"COC(=O)c1cc2c(cn1)[nH]c1ccccc12 [Compound 501, Methyl beta-carboline-3-carboxylate]",118
17,"CNC(=O)c1cc2c(cn1)[nH]c1ccccc12 [Compound 502, N-Methyl-beta-carboline-3-carboxamide]",80
18,"CCc1c(C(=O)OC)ncc2[nH]c3cc(OC)c(OC)cc3c12 [Compound 503, Methyl 6,7-dimethoxy-4-ethyl-beta-carboline-3-carboxylate]",79

# Same assay, conditions: 10 µM compound, 300 nM dopamine, 2 hr; hit = compound effect <20
row,Compound,"Compound effect (percent receptor signaling in presence of test compound, relative lux units relative to the SCH23390 control)"
1,"CCCCC1(C2CCCC2)Cc2cc(OCC(=O)O)c(Cl)c(Cl)c2C1=O (stereo not drawn) [Compound 454, R(+)-Butylindazone]",97%
2,"O=C(O)c1cc(=O)c2c(Cl)cc(Cl)cc2[nH]1 [Compound 460, 5,7-Dichlorokynurenic acid]",102%
3,"CCCN1CCC[C@@H](c2cccc(C#N)c2)C1.Cl [Compound 469, S(-)-DS 121 hydrochloride]",94%
4,"CCN(CC)C(=O)c1ccc(O)c(OC)c1 [Compound 470, Vanillic acid diethylamide]",101%
5,"CCCCCCCCCCCCCCCCCCOCC(COP(=O)([O-])OCC[N+](C)(C)C)OC (centres unmarked) [Compound 475, ET-18-OCH3]",113%
6,"Nc1ncnc2c1c(-c1ccc(Oc3ccccc3)cc1)cn2C1CCCC1 [Compound 477, 7-Cyclopentyl-5-(4-phenoxy)phenyl-7H-pyrrolo[2,3-d]pyrimidin-4-ylamine]",76%
7,"Br.CCSC(=N)N [Compound 482, S-Ethylisothiourea hydrobromide]",104%
8,"CCc1cc(Cl)c(OC)c(C(=O)NC[C@@H]2CCCN2CC)c1O.Cl [Compound 505, S-(-)-Eticlopride hydrochloride]",85%
9,"OC[C@H]1O[C@@H](n2cnc3c(N[C@H]4CC5CCC4C5)ncnc32)[C@H](O)[C@@H]1O (stereo partly drawn) [Compound 506, (S)-ENBA]",112%
10,"CCCCCCC(C(C)O)n1cnc2c(N)ncnc21.Cl (stereo not drawn) [Compound 507, erythro-9-(2-Hydroxy-3-nonyl)adenine hydrochloride]",128%

# Same assay, conditions: read-out: % of the SCH23390 effect (percent inhibition of receptor response relative to the SCH23390 control)
row,Compound,inhibition at 10 µM
1,"CC[C@H]1CN2CCc3cc(OC)c(OC)cc3[C@@H]2C[C@@H]1C[C@H]1NCCc2cc(OC)c(OC)cc21 [Compound 478, Emetine dihydrochloride hydrate]",86%
